The subject of assay [1] is K1 strain, a drug resistant strain of Plasmodium falciparum. Put plainly: In vitro antimalarial assay (p-LDH, Malstat), K1 strain. Type of assay: cell-based. The conditions noted are these: read-out: Antimalarial activity (IC50 value), Strain K1. The method in brief:
(§1)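 IC50 derived from concentration-response of parasite lactate dehydrogenase signal (Malstat reagent, NBT/PES formazan at 655 nm) after freeze-thaw lysis. Infected erythrocytes (hematocrit 2%, parasitaemia 0.5 or 1%) exposed 72 h to 12.5–0.0001 μM final compound under 3% O2-4% CO2-93% N2, FCR3 and K1 alike.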

The subject of assay [2] is FCR3 strain, a drug sensitive strain of Plasmodium falciparum. Put plainly: In vitro antimalarial assay (p-LDH, Malstat), FCR3 strain. It counts as cell-based. The settings on record: read-out: Antimalarial activity (IC50 value), Strain FCR3. The essentials:
as §1

Setting [3] is: P. falciparum K1 (drug resistant), 72 h culture, p-LDH readout.
[4] abbreviates: P. falciparum FCR3 (drug sensitive), 72 h culture, p-LDH readout.

Counter-ions that a name gives are not always drawn. Like-named read-outs stand apart in the source and are kept apart here. Some results are limits rather than exact numbers.

As to `CC(C)c1cccc(Nc2nc(Nc3ccn4ccnc4c3)cc(N3CCCCC3)n2)n1` [Example 121, N4-(imidazo[1,2-a]pyridin-7-yl)-N2-(6-isopropylpyridin-2-yl)-6-(piperidin-1-yl)pyrimidine-2,4-diamine], the values for the concentration for half-maximal inhibition (IC50) in assay [1] (setting [3]) and in assay [2] (setting [4]) were 100 to 1000 nM and < 100 nM, respectively.

In the case of `CC(C)(C)c1cccc(Nc2nc(Nc3ccn4ccnc4c3)cc(N3CCCCC3)n2)n1` [Example 122, N2-(6-(tert-butyl)pyridin-2-yl)-N4-(imidazo[1,2-a]pyridin-7-yl)-6-(piperidin-1-yl)pyrimidine-2,4-diamine], the IC50 in assay [1] (setting [3]) and in assay [2] (setting [4]) was 100 to 1000 nM in each case.

On to `CC(C)c1cccc(Nc2nc(Nc3ccn4ccnc4c3)cc(N3CCOCC3)n2)n1` [Example 123, N4-(imidazo[1,2-a]pyridin-7-yl)-N2-(6-isopropylpyridin-2-yl)-6-morpholinopyrimidine-2,4-diamine formate], for which the half-inhibitory concentration (IC50) in assay [1] (K1, 72 h) is 100 to 1000 nM; in assay [2] (FCR3, 72 h) it was < 100 nM.

For the compound `CC(C)(C)c1cccc(Nc2nc(Nc3ccn4ccnc4c3)cc(N3CCOCC3)n2)n1` [Example 124, N2-(6-(tert-butyl)pyridin-2-yl)-N4-(imidazo[1,2-a]pyridin-7-yl)-6-morpholinopyrimidine-2,4-diamine], the half-inhibitory concentration (IC50) in assay [1] (setting [3]) and in assay [2] (setting [4]) was 100 to 1000 nM in each case.

For the compound `CCc1ccnc(Nc2nc(Nc3ccn4ccnc4c3)cc(N3CC[C@@H](N(C)C)C3)n2)c1` [Example 125, (R)-6-(3-(dimethylamino)pyrrolidin-1-yl)-N2-(4-ethylpyridin-2-yl)-N4-(imidazo[1,2-a]pyridin-7-yl)pyrimidine-2,4-diamine], the half-maximal inhibitory concentration (IC50) in assay [1] (setting [3]) and in assay [2] (setting [4]) was < 100 nM in each case.

For `CCc1ccnc(Nc2nc(Nc3ccn4ccnc4c3)cc(N3CC[C@H](N(C)C)C3)n2)c1` [Example 126, (S)-6-(3-(dimethylamino)pyrrolidin-1-yl)-N2-(4-ethylpyridin-2-yl)-N4-(imidazo[1,2-a]pyridin-7-yl)pyrimidine-2,4-diamine], the IC50 in assay [1] (setting [3]) and in assay [2] (setting [4]) was < 100 nM each time.

As to `CCc1ccnc(Nc2nc(Nc3ccn4ccnc4c3)cc(N3CCC(N4CCCC4)CC3)n2)c1` [Example 127, N2-(4-ethylpyridin-2-yl)-N4-(imidazo[1,2-a]pyridin-7-yl)-6-(4-(pyrrolidin-1-yl)piperidin-1-yl)pyrimidine-2,4-diamine], the 50% inhibitory concentration (IC50) in assay [1] (setting [3]) and in assay [2] (setting [4]) was < 100 nM each time.

Turning to `COc1ccnc(Nc2nc(Nc3ccn4ccnc4c3)cc(N3CCCC3)n2)c1` [Example 128, N4-(imidazo[1,2-a]pyridin-7-yl)-N2-(4-methoxypyridin-2-yl)-6-(pyrrolidin-1-yl)pyrimidine-2,4-diamine], the half-maximal inhibitory concentration (IC50) in assay [1] (setting [3]) and in assay [2] (setting [4]) was < 100 nM each time.

For `CCc1ccnc(Nc2nc(Nc3ccn4ccnc4c3)cc(N3CCC(N(C)C)CC3)n2)c1` [Example 129, 6-(4-(dimethylamino)piperidin-1-yl)-N2-(4-ethylpyridin-2-yl)-N4-(imidazo[1,2-a]pyridin-7-yl)pyrimidine-2,4-diamine], the IC50 in assay [1] (setting [3]) and in assay [2] (setting [4]) was < 100 nM throughout.

In the case of `Cc1cc(C)nc(Nc2nc(Nc3ccn4ccnc4c3)cc(N3CCC(O)CC3)n2)c1` [Example 130, 1-(2-((4,6-dimethylpyridin-2-yl)amino)-6-(imidazo[1,2-a]pyridin-7-ylamino)pyrimidin-4-yl)piperidin-4-ol], the half-inhibitory concentration (IC50) in assay [1] (setting [3]) and in assay [2] (setting [4]) was < 100 nM in each case.

For `COC1CCN(c2cc(Nc3ccn4ccnc4c3)nc(Nc3cc(C)cc(C)n3)n2)CC1` [Example 131, N2-(4,6-dimethylpyridin-2-yl)-N4-(imidazo[1,2-a]pyridin-7-yl)-6-(4-methoxypiperidin-1-yl)pyrimidine-2,4-diamine], the concentration for half-maximal inhibition (IC50) in assay [1] (setting [3]) and in assay [2] (setting [4]) was < 100 nM each time.

As to `Cc1cc(C)nc(Nc2nc(Nc3ccn4ccnc4c3)cc(N3CCC(N4CCOCC4)CC3)n2)c1` [Example 132, N2-(4,6-dimethylpyridin-2-yl)-N4-(imidazo[1,2-a]pyridin-7-yl)-6-(4-morpholinopiperidin-1-yl)pyrimidine-2,4-diamine], the 50% inhibitory concentration (IC50) in assay [1] (setting [3]) and in assay [2] (setting [4]) was < 100 nM each time.

On to `Cc1cc(C)nc(Nc2nc(Nc3ccn4ccnc4c3)cc(N3CCC(N4CCCCC4)CC3)n2)c1` [Example 133, 6-([1,4′-bipiperidin]-1′-yl)-N2-(4,6-dimethylpyridin-2-yl)-N4-(imidazo[1,2-a]pyridin-7-yl)pyrimidine-2,4-diamine], for which the IC50 in assay [1] (setting [3]) and in assay [2] (setting [4]) was < 100 nM in each case.

In the case of `Cc1cc(C)nc(Nc2nc(Nc3ccn4ccnc4c3)cc(N3CCC(N(C)C)CC3)n2)c1` [Example 134, 6-(4-(dimethylamino)piperidin-1-yl)-N2-(4,6-dimethylpyridin-2-yl)-N4-(imidazo[1,2-a]pyridin-7-yl)pyrimidine-2,4-diamine], the half-maximal inhibitory concentration (IC50) in assay [1] (setting [3]) and in assay [2] (setting [4]) was < 100 nM in each case.

With `Cc1cc(C)nc(Nc2nc(Nc3ccn4ccnc4c3)cc(N3CCCC3)n2)c1` [Example 135, N2-(4,6-dimethylpyridin-2-yl)-N4-(imidazo[1,2-a]pyridin-7-yl)-6-(pyrrolidin-1-yl)pyrimidine-2,4-diamine], the IC50 in assay [1] (setting [3]) and in assay [2] (setting [4]) was < 100 nM throughout.

Regarding `Cc1cc(C)nc(Nc2nc(Nc3ccn4ccnc4c3)cc(N3CCC(O)C3)n2)c1` (centres unmarked) [Example 136, 1-(2-((4,6-dimethylpyridin-2-yl)amino)-6-(imidazo[1,2-a]pyridin-7-ylamino)pyrimidin-4-yl)pyrrolidin-3-ol], the IC50 in assay [1] (setting [3]) and in assay [2] (setting [4]) was < 100 nM throughout.

For the compound `Cc1cc(C)nc(Nc2nc(Nc3ccn4ccnc4c3)cc(N3CCC(N(C)C)C3)n2)c1` (centres unmarked) [Example 137, 6-(3-(dimethylamino)pyrrolidin-1-yl)-N2-(4,6-dimethylpyridin-2-yl)-N4-(imidazo[1,2-a]pyridin-7-yl)pyrimidine-2,4-diamine], the IC50 in assay [1] (setting [3]) and in assay [2] (setting [4]) was < 100 nM in each case.

Turning to `Cc1cc(C)nc(Nc2nc(Nc3ccn4ccnc4c3)cc(N3CCC(F)(F)C3)n2)c1` [Example 138, 6-(3,3-difluoropyrrolidin-1-yl)-N2-(4,6-dimethylpyridin-2-yl)-N4-(imidazo[1,2-a]pyridin-7-yl)pyrimidine-2,4-diamine], the figures for the IC50 in assay [1] (setting [3]) and in assay [2] (setting [4]) were 100 to 1000 nM and < 100 nM, respectively.

In the case of `Cc1cc(C)nc(Nc2nc(Nc3ccn4ccnc4c3)cc(N3CC=CC3)n2)c1` [Example 139, 6-(2,5-dihydro-1H-pyrrol-1-yl)-N2-(4,6-dimethylpyridin-2-yl)-N4-(imidazo[1,2-a]pyridin-7-yl)pyrimidine-2,4-diamine], the half-maximal inhibitory concentration (IC50) in assay [1] (setting [3]) and in assay [2] (setting [4]) was < 100 nM throughout.

On to `COC1CCN(c2cc(Nc3ccn4ccnc4c3)nc(Nc3cc(C)cc(C)n3)n2)C1` (centres unmarked) [Example 140, N2-(4,6-dimethylpyridin-2-yl)-N4-(imidazo[1,2-a]pyridin-7-yl)-6-(3-methoxypyrrolidin-1-yl)pyrimidine-2,4-diamine], for which the IC50 in assay [1] (setting [3]) and in assay [2] (setting [4]) was < 100 nM in each case.

`Cc1cc(C2CC2)cc(Nc2nc(Nc3ccn4ccnc4c3)cc(N3CCCCC3)n2)n1` [Example 141, N2-(4-cyclopropyl-6-methylpyridin-2-yl)-N4-(imidazo[1,2-a]pyridin-7-yl)-6-(piperidin-1-yl)pyrimidine-2,4-diamine]: the concentration for half-maximal inhibition (IC50) in assay [1] (setting [3]) was 100 to 1000 nM; in assay [2] (setting [4]), < 100 nM.

Regarding `COc1cccc(Nc2nc(Nc3ccn4ccnc4c3)cc(N3CCCC3)n2)n1` [Example 143, N4-(imidazo[1,2-a]pyridin-7-yl)-N2-(6-methoxypyridin-2-yl)-6-(pyrrolidin-1-yl)pyrimidine-2,4-diamine], the IC50 lay in the range of 100 to 1000 nM in assay [1] (setting [3]) and 1000 to 10000 nM in assay [2] (setting [4]).

In the case of `COc1cccc(Nc2nc(Nc3ccn4ccnc4c3)cc(N3CCCCC3)n2)n1` [Example 144, N4-(imidazo[1,2-a]pyridin-7-yl)-N2-(6-methoxypyridin-2-yl)-6-(piperidin-1-yl)pyrimidine-2,4-diamine], the concentration for half-maximal inhibition (IC50) in assay [1] (setting [3]) and in assay [2] (setting [4]) was 100 to 1000 nM throughout.

Turning to `CCOc1ccnc(Nc2nc(Nc3ccn4ccnc4c3)cc(N3CCCC3)n2)c1` [Example 145, N2-(4-ethoxypyridin-2-yl)-N4-(imidazo[1,2-a]pyridin-7-yl)-6-(pyrrolidin-1-yl)pyrimidine-2,4-diamine], the figures for the IC50 in assay [1] (setting [3]) and in assay [2] (setting [4]) were 100 to 1000 nM and < 100 nM, respectively.

As for `Cc1cc(C)nc(Nc2nc(Nc3ccn4ccnc4c3)cc(N3CCC(C)C3)n2)c1` (centres unmarked) [Example 146, N2-(4,6-dimethylpyridin-2-yl)-N4-(imidazo[1,2-a]pyridin-7-yl)-6-(3-methylpyrrolidin-1-yl)pyrimidine-2,4-diamine], the 50% inhibitory concentration (IC50) in assay [1] (setting [3]) and in assay [2] (setting [4]) was < 100 nM throughout.

Turning to `Cc1cc(C)nc(Nc2nc(Nc3ccn4ccnc4c3)cc(N3CCC(N4CCCC4)C3)n2)c1` (centres unmarked) [Example 148, 6-([1,3′-bipyrrolidin]-1′-yl)-N2-(4,6-dimethylpyridin-2-yl)-N4-(imidazo[1,2-a]pyridin-7-yl)pyrimidine-2,4-diamine], the IC50 in assay [1] (setting [3]) and in assay [2] (setting [4]) was < 100 nM throughout.

As for `Cc1cc(C)nc(Nc2nc(Nc3ccn4ccnc4c3)cc(N3CCC(N4CCOCC4)C3)n2)c1` (centres unmarked) [Example 149, N2-(4,6-dimethylpyridin-2-yl)-N4-(imidazo[1,2-a]pyridin-7-yl)-6-(3-morpholinopyrrolidin-1-yl)pyrimidine-2,4-diamine], the IC50 in assay [1] (setting [3]) and in assay [2] (setting [4]) was < 100 nM in each case.

With `CCOc1cccc(Nc2nc(Nc3ccn4ccnc4c3)cc(N3CCCC3)n2)n1` [Example 150, N2-(6-ethoxypyridin-2-yl)-N4-(imidazo[1,2-a]pyridin-7-yl)-6-(pyrrolidin-1-yl)pyrimidine-2,4-diamine], the figures for the IC50 in assay [1] (setting [3]) and in assay [2] (setting [4]) were 100 to 1000 nM and < 100 nM, respectively.

Usually IC50 stands for the point on the concentration scale where inhibition reaches its midpoint.

The values above are taken from patent US10538521B2, “Pyrimidine derivative having antimalarial activity” (CARNA BIOSCIENCES, INC., priority 2016, dated 2020).
